{"source": "patent US20190070214A1", "about": "(priority 2016, published 2019)", "key": {"[1]": {"assay": "TNBS-induced colitis, histopathology of colon", "settings": "day 5"}, "[2]": {"assay": "TNBS-induced colitis, video endoscopy colitis score"}, "[3]": {"assay": "TNBS-induced colitis, colon length and weight", "settings": "Group 2, prednisolone 1 mg/kg/dose t.i.d.; day 5; individual animals"}, "[4]": {"assay": "TNBS-induced colitis, body weight"}, "Clostridium perfringens": {"tested_on": "Clostridium perfringens", "type": "in vivo, broiler chicks"}, "[5]": {"settings": "Group 2, prednisolone 1 mg/kg/dose t.i.d., mean per animal, scale 0-4 (Table 3)"}, "[6]": {"settings": "Group 2, prednisolone 1 mg/kg/dose t.i.d., individual animals, scale 0-4 (Table 2)"}, "[7]": {"settings": "Group 2, prednisolone 1 mg/kg/dose t.i.d. p.o. + TNBS, individual animals"}}, "note": "“And” between values parts separate entries of the source, which are not always exact repeats. Equal values may be shown once. Positions of bridges follow the written chain, without caps; N, C: chain ends. Non-standard residues stand in square brackets, D forms with d. Residues, ends and D or L forms follow the SMILES beside them. *: point of attachment. Ileψ(thiazoline)Cys = CC[C@H](C)[C@H](N)C1=N[C@H](C(=O)*)CS1; dOrn = NCCC[C@@H](N)C(=O)O"}
{"smiles": "C[C@]12C=CC(=O)C=C1CC[C@@H]1[C@@H]2[C@@H](O)C[C@@]2(C)[C@H]1CC[C@]2(O)C(=O)CO", "note": "[Prednisolone]", "values": [{"measurement": "Histology Scores Edema", "setting": "[1]; [5]", "value": "1.20 (4×) and 0.83 (2×) and 0.50 and 0.67 and 1.40 and 0.80"}, {"measurement": "Histology Scores Inflam", "setting": "[1]; [5]", "value": "1.60 and 1.40 and 1.00 (3×) and 0.83 (2×) and 0.33 and 0.67 and 0.80"}, {"measurement": "Histology Scores Necrosis", "setting": "[1]; [5]", "value": "1.00 and 0.80 (3×) and 0.40 and 0.67 and 0.00 and 0.33 and 0.50 and 0.60"}, {"measurement": "edema scores vs vehicle control", "setting": "[1]; prednisolone, p=0.004", "value": "significantly lower"}, {"measurement": "sum pathology scores vs vehicle control", "setting": "[1]; prednisolone, p=0.007", "value": "significantly lower"}, {"measurement": "Endo Score Day 3", "setting": "[2]; [6]", "value": "2 (4×) and 1 (2×) and 3 and 4 (3×)"}, {"measurement": "Endo Score Day 5", "setting": "[2]; [6]", "value": "3 (3×) and 2 (5×) and 4 and 1"}, {"measurement": "colitis score of representative endoscopy image", "setting": "[2]; day 5, prednisolone, scale 0-4, vehicle 3", "value": 2}, {"measurement": "mean colitis scores vs vehicle control", "setting": "[2]; prednisolone 1 mg/kg/dose t.i.d., day 3 p=0.010, day 5 p=0.027", "value": "significantly reduced mean colitis scores"}, {"measurement": "Colon Length", "setting": "[3]", "value": "8 (3×) and 6.4 and 8.5 and 7.2 (2×) and 7 and 6.5 and 7.5"}, {"measurement": "Colon Weight", "setting": "[3]", "value": "0.334 and 0.344 and 0.392 and 0.386 and 0.248 and 0.276 and 0.24 and 0.318 and 0.35 and 0.224"}, {"measurement": "Animal Weights Day 0", "setting": "[4]; [7]", "value": "23.09 and 25.03 and 23.28 and 23.97 and 22.64 and 24.58 and 24.61 and 25.53 and 25.1 and 24.95"}, {"measurement": "Animal Weights Day 1", "setting": "[4]; [7]", "value": "20.19 and 21.15 and 20.41 and 20.78 and 20.62 and 21.89 and 22.21 and 22.35 (2×) and 22.44"}, {"measurement": "Animal Weights Day 2", "setting": "[4]; [7]", "value": "19.12 and 20.17 and 19.33 and 19.52 and 20.33 and 20.83 and 22.81 and 21.35 and 22.46 and 23.66"}, {"measurement": "Animal Weights Day 3", "setting": "[4]; [7]", "value": "18.77 and 19.45 and 18.6 and 19.09 and 22.59 and 21.38 and 23.44 and 21.24 and 23.92 and 24.77"}, {"measurement": "Animal Weights Day 4", "setting": "[4]; [7]", "value": "18.36 and 19.11 and 19.32 and 18.56 and 22.41 and 21.65 and 23.51 and 22.09 and 23.48 and 23.97"}, {"measurement": "Animal Weights Day 5", "setting": "[4]; [7]", "value": "19.28 and 20.1 and 21.49 and 19.89 and 22.48 and 22.05 and 24.03 and 23.91 and 24.24 and 24.3"}, {"measurement": "Animal Weights Day −1", "setting": "[4]; [7]", "value": "23.94 and 25.76 and 24.35 and 24.86 and 24.02 and 25.97 and 26.64 and 26.78 and 27.15 and 27.02"}, {"measurement": "average weight loss from starting weight", "setting": "[4]; day 2, prednisolone 1 mg/kg/dose t.i.d. p.o.", "value": 18.3, "unit": "%"}]}
{"smiles": "CC[C@H](C)[C@H](N)C1=N[C@H](C(=O)N[C@@H](CC(C)C)C(=O)N[C@H](CCC(=O)O)C(=O)N[C@H](C(=O)N[C@H]2CCCCNC(=O)[C@H](CC(N)=O)NC(=O)[C@@H](CC(=O)O)NC(=O)[C@H](Cc3cnc[nH]3)NC(=O)[C@@H](Cc3ccccc3)NC(=O)[C@H]([C@@H](C)CC)NC(=O)[C@@H](CCCN)NC2=O)[C@@H](C)CC)CS1", "note": "[BMD, bacitracin] ({Ileψ(thiazoline)Cys}-L[dE]IK[dOrn]I[dF]H[dD]N; lactam 4-C)", "values": [{"measurement": "necrotic enteritis (NE) of the GI tract, figure given for BMD", "setting": "Clostridium perfringens; BMD positive control in water, P<0.05, meaning of figure unclear", "value": 93, "unit": "%"}, {"measurement": "mortality normalized to untreated (100%)", "setting": "Clostridium perfringens; total aggregate deaths up to and including day 14", "value": 45, "unit": "%"}]}
